Data published in publication PMC5882164, “A novel calcimimetic agent, evocalcet (MT-4580/KHK7580), suppresses the parathyroid cell function with little effect on the gastrointestinal tract or CYP isozymes in vivo and in vitro” (PLoS ONE, 2018).
Several values for one entry are separate records, joined by “and”; a condition that tells them apart may be missing. Equal entries are not always repeated. Structures can show the parent of a compound that is named as a salt.

Columns and labels:
serum PTH [1] = assay: Normal rat study: serum PTH level after oral administration; format: in vivo; details: normal rats
Experimental: (§1) After acclimatization, rats were divided into nine groups (n = 10/group) matched in terms of body weight, and their serum PTH and calcium levels. Vehicle, 0.5% (w/v) methyl cellulose (Wako Pure Chemical Industries, Ltd.) solution orally administered to vehicle treatment group rats. Evocalcet (0.03, 0.1, 0.3, or 1 mg/kg), or cinacalcet (1, 3, 10, or 30 mg/kg) were suspended in the vehicle solution and orally administered to each drug treatment group. Blood samples were collected from the tail vein before and at 0.5, 2, 4, 6, 8, and 24 h after the oral administration.
(§2) The serum PTH level was measured using a Rat Intact PTH ELISA kit (Immutopics, Inc., San Clemente, CA). The serum calcium, phosphate and BUN levels were measured using an auto analyzer (Hitachi High-Technologies Corporation., Tokyo, Japan) or the following test kits: the Calcium E-test WAKO, the Phospha C-test WAKO, or the Blood Urea nitrogen B-test WAKO (Wako Pure Chemical Industries, Ltd., Osaka, Japan).

serum calcium = assay: Normal rat study: serum calcium level after oral administration; format: in vivo; design: Serum Ca: unit not given here; details: normal rats
Experimental: as §1, §2

gastric emptying = assay: Evaluation of gastric emptying in rats (phenol red); format: in vivo, rat
Experimental: The study of gastric emptying in rats was performed by referencing a previously reported method. […] The rats were divided into eight body-weight-matched groups (n = 8/group). […] Ten minutes later, 0.05 w/v% phenol red, a non-absorbable marker solution (1.5 mL/body), was orally administered. Thirty minutes after the administration of phenol red, the rats were euthanized by cervical dislocation, and the gastric body clamped at the cardiac and pyloric part of the stomach was obtained. The stomach was homogenized by adding 0.1 M NaOH and centrifugated. The supernatant was mixed with 20 w/v% trichloroacetic acid. After centrifugation, the supernatant was mixed with the same volume of 0.5 mol/L NaOH, and the absorbance was measured at 560 nm. The gastric emptying rate was calculated by the following formula: […]=[1-(opticaldensity[[…])]×100

serum PTH [2] = assay: Serum PTH reduction in common marmosets; format: in vivo, common marmoset; design: Serum PTH levels: unit not given here
Experimental: The study of effect of evocalcet on emesis in common marmoset was performed by referencing a previously reported method. The marmosets (n = 24) used for this study were housed in cages (460 × 600 × 655 mm) with environmental enrichments (wooden perches, swing, and balls) and acclimated for at least 4 weeks. The marmosets were fasted from evening on the day before administration. […] The serum PTH level was measured using a Porcine Intact PTH ELISA kit (Immutopics, Inc., San Clemente, CA, USA). To evaluate the emetic effects in marmosets, evocalcet (50 or 150 μg/kg) or cinacalcet (1500 or 5000 μg/kg) was orally administered (n = 6/drug, dose down titration, n = 12 in total). The observation of emesis was conducted until 4 h after the administration.

[3] = cinacalcet 1 mg/kg oral, 0 h, group mean of 10 rats
[4] = cinacalcet 1 mg/kg oral, 0 h, individual rat
[5] = cinacalcet 1 mg/kg oral, 0.5 h, group mean of 10 rats
[6] = cinacalcet 1 mg/kg oral, 0.5 h, individual rat
[7] = cinacalcet 1 mg/kg oral, 2 h, group mean of 10 rats
[8] = cinacalcet 1 mg/kg oral, 2 h, individual rat
[9] = cinacalcet 1 mg/kg oral, 4 h, group mean of 10 rats
[10] = cinacalcet 1 mg/kg oral, 4 h, individual rat
[11] = cinacalcet 1 mg/kg oral, 6 h, group mean of 10 rats
[12] = cinacalcet 1 mg/kg oral, 6 h, individual rat
[13] = cinacalcet 1 mg/kg oral, 8 h, group mean of 10 rats
[14] = cinacalcet 1 mg/kg oral, 8 h, individual rat
[15] = cinacalcet 1 mg/kg oral, 24 h, group mean of 10 rats
[16] = cinacalcet 1 mg/kg oral, 24 h, individual rat
[17] = cinacalcet 3 mg/kg oral, 0 h, group mean of 10 rats
[18] = cinacalcet 3 mg/kg oral, 0 h, individual rat
[19] = cinacalcet 3 mg/kg oral, 0.5 h, individual rat
[20] = cinacalcet 3 mg/kg oral, 2 h, individual rat
[21] = cinacalcet 3 mg/kg oral, 4 h, individual rat
[22] = cinacalcet 3 mg/kg oral, 6 h, individual rat
[23] = cinacalcet 3 mg/kg oral, 8 h, individual rat
[24] = cinacalcet 3 mg/kg oral, 24 h, individual rat
[25] = single oral dose, vs vehicle group

With `C[C@@H](NCCCc1cccc(C(F)(F)F)c1)c1cccc2ccccc12` [cinacalcet, Cinacalcet hydrochloride, reference compound] the “Serum PTH” value (serum PTH [1]; [3]) was 109.720, the “Serum PTH” value (serum PTH [1]; [4]) was 125.722 and 130.447 and 67.586 and 199.824 and 100.664 and 97.298 and 150.924 and 89.996 and 55.272 and 79.471 and the “Serum PTH” value (serum PTH [1]; [5]) was 80.824. For the same compound, the “Serum PTH” value (serum PTH [1]; [6]) was 82.661 and 77.184 and 76.842 and 101.034 and 110.106 and 55.958 and 55.844 and 88.538 and 77.412, the “Serum PTH” value (serum PTH [1]; [7]) was 79.608 and the “Serum PTH” value (serum PTH [1]; [8]) was 48.013 and 15.500 and 63.091 and 101.472 and 98.442 and 56.814 and 145.553 and 109.841 and 112.583 and 44.766. For the same compound, the “Serum PTH” value (serum PTH [1]; [9]) was 140.908, the “Serum PTH” value (serum PTH [1]; [10]) was 61.596 and 118.199 and 215.679 and 200.323 and 159.521 and 92.828 and 169.313 and 166.494 and 115.974 and 109.149 and the “Serum PTH” value (serum PTH [1]; [11]) was 165.420. The “Serum PTH” value (serum PTH [1]; [12]) was 193.418 and 170.704 and 168.342 and 210.841 and 173.065 and 135.125 and 169.319 and 98.407 and 166.633, the “Serum PTH” value (serum PTH [1]; [13]) was 216.453 and the “Serum PTH” value (serum PTH [1]; [14]) was 174.106 and 258.920 and 229.591 and 209.695 and 192.029 and 200.519 and 209.009 and 246.914 and 151.294 and 292.451. For the same compound, the “Serum PTH” value (serum PTH [1]; [15]) was 137.047, the “Serum PTH” value (serum PTH [1]; [16]) was 113.627 and 116.500 and 103.304 and 199.622 and 108.780 and 152.854 and 112.730 and 224.397 and 139.120 and 99.534 and the “Serum PTH” value (serum PTH [1]; [17]) was 102.683. For the same compound, the “Serum PTH” value (serum PTH [1]; [18]) was 56.632 and 140.686 and 84.483 and 109.613, the “Serum PTH” value (serum PTH [1]; [19]) was 15.500 and 54.018 and the “Serum PTH” value (serum PTH [1]; [20]) was 42.818 and 15.500 and 32.934. The “Serum PTH” value (serum PTH [1]; [21]) was 141.716 and 112.265 and 135.633 and 62.560, the “Serum PTH” value (serum PTH [1]; [22]) was 155.316 and 207.503 and 133.171 and the “Serum PTH” value (serum PTH [1]; [23]) was 158.155 and 206.865 and 189.885 and 126.682. For the same compound, the “Serum PTH” value (serum PTH [1]; [24]) was 109.678 and 94.507 and 141.634 and 226.462, the “Doses that significantly reduced the serum PTH level” value (serum PTH [1]; [25]) was at least 1 mg/kg and the “Serum Ca” value (serum calcium; [3]) was 11.5. The “Serum Ca” value (serum calcium; [4]) was 14.6 and 10.4 and 11.2 and 10.8 and 12.0 and 11.0 and 11.4, the “Serum Ca” value (serum calcium; [5]) was 10.5 and the “Serum Ca” value (serum calcium; [6]) was 10.4 and 10.8 and 10.0 and 10.6 and 10.2. For the same compound, the “Serum Ca” value (serum calcium; [7]) was 10.3, the “Serum Ca” value (serum calcium; [8]) was 10.4 and 10.2 and 10.0 and 10.6 and the “Serum Ca” value (serum calcium; [9]) was 9.9. The “Serum Ca” value (serum calcium; [10]) was 8.0 and 10.2 and 9.8 and 10.4 and 10.0, the “Serum Ca” value (serum calcium; [11]) was 10.0 and the “Serum Ca” value (serum calcium; [12]) was 9.6 and 9.4 and 10.0 and 10.4 and 10.2. The “Serum Ca” value (serum calcium; [13]) was 10.1, the “Serum Ca” value (serum calcium; [14]) was 10.0 and 10.4 and 10.2 and 9.8 and the “Serum Ca” value (serum calcium; [15]) was 12.1. The “Serum Ca” value (serum calcium; [16]) was 12.2 and 11.8 and 11.2 and 12.6 and 11.4 and 13.0 and 11.0 and 12.4, the “Serum Ca” value (serum calcium; [17]) was 11.1 and the “Serum Ca” value (serum calcium; [18]) was 11.2 and 9.4 and 11.4. For the same compound, the “Serum Ca” value (serum calcium; cinacalcet 3 mg/kg oral, 0.5 h, group mean of 10 rats) was 10.6, the “Serum Ca” value (serum calcium; [19]) was 10.8 and 10.6 and 11.2 and 10.2 and the “Serum Ca” value (serum calcium; cinacalcet 3 mg/kg oral, 2 h, group mean of 10 rats) was 9.8. For the same compound, the “Serum Ca” value (serum calcium; [20]) was 9.8 and 8.6 and 10.0, the “Serum Ca” value (serum calcium; cinacalcet 3 mg/kg oral, 4 h, group mean of 10 rats) was 9.3 and the “Serum Ca” value (serum calcium; [21]) was 9.2 and 8.8 and 9.4. For the same compound, the “Serum Ca” value (serum calcium; cinacalcet 3 mg/kg oral, 6 h, group mean of 10 rats) was 9.3, the “Serum Ca” value (serum calcium; [22]) was 9.4 and 8.8 and 9.6 and the “Serum Ca” value (serum calcium; cinacalcet 3 mg/kg oral, 8 h, group mean of 10 rats) was 9.7. For the same compound, the “Serum Ca” value (serum calcium; [23]) was 9.6 and 9.2 and 9.8, the “Serum Ca” value (serum calcium; cinacalcet 3 mg/kg oral, 24 h, group mean of 10 rats) was 12.1 and the “Serum Ca” value (serum calcium; [24]) was 12.0 and 11.2 and 11.6. The “Serum Ca” value (serum calcium; cinacalcet 10 mg/kg oral, 0 h, individual rat) was 9.6 and 11.4 and 10.6 and 11.2, the “Serum Ca” value (serum calcium; cinacalcet 10 mg/kg oral, 0.5 h, individual rat) was 10.0 and 10.2 and 10.8 and 9.8 and the “Serum Ca” value (serum calcium; cinacalcet 10 mg/kg oral, 2 h, individual rat) was 8.6 and 9.6 and 9.4 and 9.2. For the same compound, the “Serum Ca” value (serum calcium; cinacalcet 10 mg/kg oral, 4 h, individual rat) was 8.2 and 9.2 and 8.8, the “Serum Ca” value (serum calcium; cinacalcet 10 mg/kg oral, 6 h, individual rat) was 8.0 and 8.8 and 8.6 and the “Serum Ca” value (serum calcium; cinacalcet 10 mg/kg oral, 8 h, individual rat) was 8.6 and 10.4 and 8.4 and 8.8. For the same compound, the “Serum Ca” value (serum calcium; cinacalcet 10 mg/kg oral, 24 h, individual rat) was 11.4 and 11.6 and 11.0 and 10.2, the “Doses that significantly reduced the serum calcium level” value (serum calcium; [25]) was at least 1 mg/kg and the “Gastric Emptying” value (gastric emptying; 100 mg/kg, group mean) was 20.02%. The “Gastric Emptying” value (gastric emptying; 100 mg/kg, individual rats) was 7.17% and 20.46% and 31.67% and 44.76% and 1.77% and 30.22% and 22.74% and 1.35%, the “Gastric Emptying” value (gastric emptying; cinacalcet 10 mg/kg oral, 30 minutes, group mean, n = 8) was 55.17% and the “Gastric Emptying” value (gastric emptying; cinacalcet 10 mg/kg oral, 30 minutes, individual rats) was 44.96% and 61.79% and 57.42% and 52.23% and 44.34% and 52.86% and 67.60% and 60.12%. The “Gastric Emptying” value (gastric emptying; cinacalcet 30 mg/kg oral, 30 minutes, group mean, n = 8) was 35.72%, the “Gastric Emptying” value (gastric emptying; cinacalcet 30 mg/kg oral, 30 minutes, individual rats) was 28.35% and 14.64% and 23.99% and 37.69% and 38.94% and 32.71% and 40.60% and 68.85% and the “Dose inhibiting gastric emptying relative to the dose required for a significant PTH reduction” value (gastric emptying; oral) was “approximately 30 fold”. For the same compound, the “Doses that caused a significant delay in gastric emptying” value (gastric emptying; oral, vs vehicle group) was at least 30 mg/kg, the “Serum PTH levels” value (serum PTH [2]; 300 μg/kg, 1 h, individual animals) was 206.7 and 42.9 and 113.4 and the “Serum PTH levels” value (serum PTH [2]; 300 μg/kg, 1 h, mean) was 121.0. The “Serum PTH levels” value (serum PTH [2]; 300 μg/kg, 4 h, individual animals) was 384.2 and 103.1 and 100.2, the “Serum PTH levels” value (serum PTH [2]; 300 μg/kg, 4 h, mean) was 195.8 and the “Serum PTH levels” value (serum PTH [2]; 300 μg/kg, before administration, individual animals) was 327.6 and 84.8 and 116.8. The “Serum PTH levels” value (serum PTH [2]; 300 μg/kg, before administration, mean) was 176.4, the “Serum PTH levels” value (serum PTH [2]; 500 μg/kg, 1 h, individual animals) was 66.0 and 160.9 and 28.9 and the “Serum PTH levels” value (serum PTH [2]; 500 μg/kg, 1 h, mean) was 85.3. For the same compound, the “Serum PTH levels” value (serum PTH [2]; 500 μg/kg, 4 h, individual animals) was 370.0 and 348.3 and 172.2, the “Serum PTH levels” value (serum PTH [2]; 500 μg/kg, 4 h, mean) was 296.8 and the “Serum PTH levels” value (serum PTH [2]; 500 μg/kg, before administration, individual animals) was 370.0 and 298.9 and 61.2. For the same compound, the “Serum PTH levels” value (serum PTH [2]; 500 μg/kg, before administration, mean) was 243.4 and the “Minimum effective dose on PTH reduction” value (serum PTH [2]; oral) was 0.5 mg/kg.
